In patent US20240209001A1, “HETEROCYCLIC DERIVATIVES AS JANUS KINASE INHIBITORS” (CHIESI FARMACEUTICI S.P. A., priority 2021, published 2024):

Columns and labels:
JAK 2 = JAK 2 (Homo sapiens (Human), UniProt O60674); experiment: Biochemical potency on JAK2, TR-FRET LANCE Ultra kinase assay (compounds 1-92); conditions: ATP at Km, read-out: JAK2 inhibitory activity (pIC50 class) (converted)
Protocol: (§1) Biochemical Potency on JAK1, JAK2, JAK3 and Tyk2 Assay Principle The objective of this study was to assess the capability of compounds to inhibit all 4 JAK isoforms activity in a cell-free environment. Assay for JAK 1, JAK 2, JAK 3 and TYK2 were performed by Time-resolved fluorescence resonance energy transfer (TR-FRET) technology. It consists in the interaction of two labelled binding partners detected by the energy transfer from an excited donor to an acceptor dye and measurement of light emission by the acceptor dye. LANCE Ultra kinase assay was used. In presence of JAK 1, JAK 2, JAK 3 and TYK2 kinases and ATP (corresponding to Km), the ULight peptide substrate (LANCE Ulight-JAK-1 ([…]) Peptide, Perkin Elmer, TRF0121) is phosphorylated. It is then captured by Eu-anti-phospho-substrate antibody (LANCE Eu-W1024 Anti-phosphotyrosine (PT66), Perkin Elmer, AD0069), which bring the Eu-chelate donor and ULight acceptor dyes into close proximity. Upon excitation at 320 nm, the Eu-chelate transfers its energy to the ULight dye, resulting in a fluorescent light emission at 665 nm. Compound Testing Serial dilutions of compounds in pure DMSO are prepared from 10 mM DMSO stock solutions. Compounds were tested in 384-well plate for 11 consecutive 5-fold dilutions starting from 20 μM highest concentration (20 μM-[…]). 200 nL of compound were transferred from mother plate to test plate by using Mosquito (TTP labtech). Assay was performed in 384-well Perkin Elmer test plate in 20 μL assay volume (kinase reaction) and 40 μL total volume (stopping reagent and antibody detection reagents). In 10 μL of substrate solution (peptide+ATP) 30/50/20/10 nM of peptide and 20/0.7/0.2/12 μM of ATP were added for JAK 1, JAK 2, JAK 3 and TYK2 respectively. 10 μL of enzyme solution was added to kinase reaction at these concentrations: 0.15/0.083/0.025/0.144 ng/μL of JAK 1, JAK 2, JAK 3 and TYK2 respectively. After shaking and 1.5 h of incubation at r.t., 20 μL of Stop (10 μL EDTA) and Detection mixture (10 μL Europium-anti-phospho antibody, final: 0.5 nM) were added. Reading was performed after 1 h of incubation on a EnVision 2104 reader (Perkin Elmer). Calculation of IC50 data, curves and QC analysis was performed by using Excel tool and GraphPadPrism software, v9. Briefly, individual concentration-effect curves are generated by plotting the logarithm of the tested concentration of tested compounds (X) vs. corresponding percent inhibition values (Y) using least squares (ordinary) fit. Best fit IC50 values are calculated using Log(inhibitor) vs. normalized response-Variable slope equation, where Y=100/(1+10^((Log IC50-X)*HillSlope)). QC criteria parameters (Z', S:B, R2, HillSlope) were checked for every IC50 curve. Calculation of IC50 data, curves and QC analysis were made using Excel tools and GraphPadPrism software. QC criteria parameters: Z'≥0.5, Hill Slope range 0.5 to 5, S:B>2.

JAK 1 = JAK 1 (Homo sapiens (Human), UniProt P23458); experiment: Biochemical potency on JAK1, TR-FRET LANCE Ultra kinase assay (compounds 1-92); conditions: ATP at Km, read-out: JAK1 inhibitory activity (pIC50 class) (converted)
Sequence of JAK 1 (P23458 whole entry): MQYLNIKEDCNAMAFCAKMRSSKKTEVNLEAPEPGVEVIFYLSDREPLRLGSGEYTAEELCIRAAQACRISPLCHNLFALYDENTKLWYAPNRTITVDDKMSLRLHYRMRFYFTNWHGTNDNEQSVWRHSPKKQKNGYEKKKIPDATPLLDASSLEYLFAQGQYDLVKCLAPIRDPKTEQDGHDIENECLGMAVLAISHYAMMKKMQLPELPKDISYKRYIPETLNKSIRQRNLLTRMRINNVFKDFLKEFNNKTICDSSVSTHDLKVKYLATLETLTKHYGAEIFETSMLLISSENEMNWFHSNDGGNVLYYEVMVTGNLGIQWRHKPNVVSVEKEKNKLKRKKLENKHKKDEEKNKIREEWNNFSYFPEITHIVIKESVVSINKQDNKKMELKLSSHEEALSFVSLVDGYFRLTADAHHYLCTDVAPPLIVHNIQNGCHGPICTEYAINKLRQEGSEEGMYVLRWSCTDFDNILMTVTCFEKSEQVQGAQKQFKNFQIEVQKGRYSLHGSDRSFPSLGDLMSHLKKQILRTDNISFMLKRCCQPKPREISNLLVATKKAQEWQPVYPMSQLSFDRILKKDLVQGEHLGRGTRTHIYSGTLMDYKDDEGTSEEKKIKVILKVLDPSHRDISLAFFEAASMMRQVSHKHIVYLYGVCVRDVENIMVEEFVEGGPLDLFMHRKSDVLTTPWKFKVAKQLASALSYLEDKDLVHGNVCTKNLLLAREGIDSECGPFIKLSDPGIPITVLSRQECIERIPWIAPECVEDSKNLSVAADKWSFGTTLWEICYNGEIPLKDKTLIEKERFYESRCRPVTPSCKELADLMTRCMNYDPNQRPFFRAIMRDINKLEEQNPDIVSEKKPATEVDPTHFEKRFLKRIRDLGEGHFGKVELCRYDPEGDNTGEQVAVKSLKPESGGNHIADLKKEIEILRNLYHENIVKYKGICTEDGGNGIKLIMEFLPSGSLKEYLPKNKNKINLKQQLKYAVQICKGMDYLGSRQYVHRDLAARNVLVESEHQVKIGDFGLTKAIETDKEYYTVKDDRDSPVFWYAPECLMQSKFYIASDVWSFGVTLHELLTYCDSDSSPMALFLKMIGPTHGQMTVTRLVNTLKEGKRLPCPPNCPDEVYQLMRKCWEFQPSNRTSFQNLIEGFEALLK
Protocol: as §1

JAK 3 = JAK 3 (Homo sapiens (Human), UniProt P52333); experiment: Biochemical potency on JAK3, TR-FRET LANCE Ultra kinase assay (compounds 1-92); conditions: ATP at Km, read-out: JAK3 inhibitory activity (pIC50 class) (converted)
Sequence of JAK 3 (P52333 whole entry): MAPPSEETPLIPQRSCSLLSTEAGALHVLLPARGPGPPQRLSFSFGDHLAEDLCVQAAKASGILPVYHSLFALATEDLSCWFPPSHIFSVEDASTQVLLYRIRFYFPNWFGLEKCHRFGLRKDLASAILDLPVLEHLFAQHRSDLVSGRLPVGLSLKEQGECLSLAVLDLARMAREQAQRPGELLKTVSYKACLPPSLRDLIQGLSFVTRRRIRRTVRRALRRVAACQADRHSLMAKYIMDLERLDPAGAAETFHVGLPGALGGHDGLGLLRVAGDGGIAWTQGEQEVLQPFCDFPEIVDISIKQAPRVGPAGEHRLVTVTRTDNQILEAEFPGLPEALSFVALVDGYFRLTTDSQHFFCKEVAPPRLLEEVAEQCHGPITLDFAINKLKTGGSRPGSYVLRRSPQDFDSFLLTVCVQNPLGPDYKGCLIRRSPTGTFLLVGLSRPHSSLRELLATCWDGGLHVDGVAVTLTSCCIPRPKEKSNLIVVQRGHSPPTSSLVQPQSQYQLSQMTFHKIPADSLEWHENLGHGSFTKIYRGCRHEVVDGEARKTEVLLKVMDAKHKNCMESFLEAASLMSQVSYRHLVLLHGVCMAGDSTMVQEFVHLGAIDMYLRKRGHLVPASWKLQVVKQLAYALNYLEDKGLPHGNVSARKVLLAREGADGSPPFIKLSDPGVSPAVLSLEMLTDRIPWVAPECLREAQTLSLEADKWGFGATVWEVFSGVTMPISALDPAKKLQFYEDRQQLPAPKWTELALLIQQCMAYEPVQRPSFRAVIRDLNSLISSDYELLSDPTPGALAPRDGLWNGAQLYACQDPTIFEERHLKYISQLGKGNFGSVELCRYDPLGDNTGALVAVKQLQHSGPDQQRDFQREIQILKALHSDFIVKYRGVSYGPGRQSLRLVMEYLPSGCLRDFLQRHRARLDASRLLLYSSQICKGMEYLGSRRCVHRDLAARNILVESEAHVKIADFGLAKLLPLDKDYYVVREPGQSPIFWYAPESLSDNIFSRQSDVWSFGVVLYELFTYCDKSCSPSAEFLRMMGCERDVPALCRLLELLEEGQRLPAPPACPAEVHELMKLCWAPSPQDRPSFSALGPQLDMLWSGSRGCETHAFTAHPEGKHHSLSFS
Protocol: as §1

TYK2 = TYK2 (Homo sapiens (Human), UniProt P29597); experiment: Biochemical potency on Tyk2, TR-FRET LANCE Ultra kinase assay (compounds 1-92); conditions: ATP at Km, read-out: Tyk2 inhibitory activity (pIC50 class) (converted)
Sequence of TYK2 (P29597 whole entry): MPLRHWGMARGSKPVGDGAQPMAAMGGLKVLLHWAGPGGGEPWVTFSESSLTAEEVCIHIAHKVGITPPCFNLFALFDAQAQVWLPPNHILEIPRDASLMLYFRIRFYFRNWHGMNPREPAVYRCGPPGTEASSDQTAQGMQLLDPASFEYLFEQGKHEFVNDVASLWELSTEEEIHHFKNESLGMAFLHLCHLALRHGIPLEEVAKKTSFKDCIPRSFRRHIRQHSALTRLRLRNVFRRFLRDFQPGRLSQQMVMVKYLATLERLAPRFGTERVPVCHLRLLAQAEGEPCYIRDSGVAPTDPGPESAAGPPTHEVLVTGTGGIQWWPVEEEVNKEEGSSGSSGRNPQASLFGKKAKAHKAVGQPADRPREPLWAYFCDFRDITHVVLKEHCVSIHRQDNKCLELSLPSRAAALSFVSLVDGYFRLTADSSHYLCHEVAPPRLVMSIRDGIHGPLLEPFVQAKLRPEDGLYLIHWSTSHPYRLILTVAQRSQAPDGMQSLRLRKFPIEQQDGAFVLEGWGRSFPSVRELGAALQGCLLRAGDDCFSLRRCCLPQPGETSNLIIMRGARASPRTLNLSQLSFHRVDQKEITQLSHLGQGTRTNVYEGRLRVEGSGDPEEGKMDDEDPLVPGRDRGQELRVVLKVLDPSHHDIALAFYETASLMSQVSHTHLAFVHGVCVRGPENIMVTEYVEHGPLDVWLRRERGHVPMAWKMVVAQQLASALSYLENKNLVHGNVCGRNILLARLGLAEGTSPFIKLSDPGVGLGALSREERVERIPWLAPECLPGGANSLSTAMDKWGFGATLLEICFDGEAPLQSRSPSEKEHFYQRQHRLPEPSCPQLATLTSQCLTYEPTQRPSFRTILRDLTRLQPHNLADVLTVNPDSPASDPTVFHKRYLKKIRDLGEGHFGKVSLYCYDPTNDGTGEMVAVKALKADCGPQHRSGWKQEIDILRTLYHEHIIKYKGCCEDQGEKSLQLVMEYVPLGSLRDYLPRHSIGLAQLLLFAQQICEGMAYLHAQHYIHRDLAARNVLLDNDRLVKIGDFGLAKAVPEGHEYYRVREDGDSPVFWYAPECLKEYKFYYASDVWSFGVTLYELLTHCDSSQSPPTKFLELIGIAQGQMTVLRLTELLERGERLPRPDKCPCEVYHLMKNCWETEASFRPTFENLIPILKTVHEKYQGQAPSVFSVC
Protocol: as §1

Sequence of JAK 2 (O60674 whole entry, canonical isoform): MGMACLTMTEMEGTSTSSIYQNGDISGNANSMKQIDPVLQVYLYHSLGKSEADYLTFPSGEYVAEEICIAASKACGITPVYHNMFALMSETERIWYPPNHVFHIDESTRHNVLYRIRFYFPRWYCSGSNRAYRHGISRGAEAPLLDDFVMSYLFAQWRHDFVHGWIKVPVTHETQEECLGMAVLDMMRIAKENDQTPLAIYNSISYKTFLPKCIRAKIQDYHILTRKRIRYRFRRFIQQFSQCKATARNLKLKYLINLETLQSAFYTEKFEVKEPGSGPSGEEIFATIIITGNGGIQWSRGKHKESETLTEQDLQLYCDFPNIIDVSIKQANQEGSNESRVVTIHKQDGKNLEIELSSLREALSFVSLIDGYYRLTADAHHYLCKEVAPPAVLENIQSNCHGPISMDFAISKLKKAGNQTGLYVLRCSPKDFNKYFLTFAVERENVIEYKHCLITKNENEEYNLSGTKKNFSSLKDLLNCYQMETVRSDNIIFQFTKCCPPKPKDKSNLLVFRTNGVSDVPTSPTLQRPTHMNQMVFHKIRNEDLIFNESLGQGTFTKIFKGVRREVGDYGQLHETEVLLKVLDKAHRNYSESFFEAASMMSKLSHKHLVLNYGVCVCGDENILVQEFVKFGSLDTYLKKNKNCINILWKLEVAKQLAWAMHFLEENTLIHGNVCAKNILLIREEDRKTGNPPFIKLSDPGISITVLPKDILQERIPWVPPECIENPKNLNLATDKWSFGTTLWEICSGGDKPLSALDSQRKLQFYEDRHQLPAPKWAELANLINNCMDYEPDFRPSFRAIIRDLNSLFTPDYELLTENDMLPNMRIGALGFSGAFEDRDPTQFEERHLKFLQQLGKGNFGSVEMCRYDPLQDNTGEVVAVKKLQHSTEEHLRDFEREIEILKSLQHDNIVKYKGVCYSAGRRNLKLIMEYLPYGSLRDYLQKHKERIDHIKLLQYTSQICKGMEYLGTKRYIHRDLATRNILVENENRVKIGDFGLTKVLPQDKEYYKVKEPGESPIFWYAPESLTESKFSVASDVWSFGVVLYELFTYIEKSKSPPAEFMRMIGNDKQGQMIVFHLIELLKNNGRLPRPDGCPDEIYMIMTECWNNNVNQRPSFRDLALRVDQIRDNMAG

SMILES: COc1cc(CNS(C)(=O)=O)ccc1-n1nc(NCCN2CCCCC2)c2cnc(-c3cnn4cccnc34)cc21 [Example 54, N-(3-methoxy-4-(3-((2-(piperidin-1-yl)ethyl)amino)-6-(pyrazolo[1,5-a]pyrimidin-3-yl)-1H-pyrazolo[4,3-c]pyridin-1-yl)benzyl)methanesulfonamide]
- IC50 (JAK 2): ≤ 5.01 nM
- IC50 (JAK 1): 5.01 to 50.1 nM
- IC50 (JAK 3): 5.01 to 50.1 nM
- IC50 (TYK2): 5.01 to 50.1 nM

SMILES: CCCS(=O)(=O)Nc1ccc(-n2nc(NC)c3cnc(Nc4ncc[nH]c4=O)cc32)c(OC)c1 [Example 91, N-(3-methoxy-4-(3-(methylamino)-6-((3-oxo-3,4-dihydropyrazin-2-yl)amino)-1H-pyrazolo[4,3-c]pyridin-1-yl)phenyl)propane-1-sulfonamide]
- IC50 (JAK 2): ≤ 5.01 nM
- IC50 (JAK 1): ≤ 5.01 nM
- IC50 (JAK 3): ≤ 5.01 nM
- IC50 (TYK2): 5.01 to 50.1 nM

SMILES: COc1cc(CNS(C)(=O)=O)ccc1-n1nc(NCCN(C)C)c2cnc(-c3cnn4cccnc34)cc21 [Example 56, N-(4-(3-((2-(dimethylamino)ethyl)amino)-6-(pyrazolo[1,5-a]pyrimidin-3-yl)-1H-pyrazolo[4,3-c]pyridin-1-yl)-3-methoxybenzyl)methanesulfonamide]
- IC50 (JAK 2): ≤ 5.01 nM
- IC50 (JAK 1): ≤ 5.01 nM
- IC50 (JAK 3): ≤ 5.01 nM
- IC50 (TYK2): 5.01 to 50.1 nM

SMILES: COc1cc(NS(=O)(=O)CC(F)F)ccc1-n1nc(C)c2cnc(-c3cnn4cccnc34)cc21 [Example 73, 2,2-difluoro-N-(3-methoxy-4-(3-methyl-6-(pyrazolo[1,5-a]pyrimidin-3-yl)-1H-pyrazolo[4,3-c]pyridin-1-yl)phenyl)ethane-1-sulfonamide]
- IC50 (JAK 2): 5.01 to 50.1 nM
- IC50 (JAK 1): ≤ 5.01 nM
- IC50 (JAK 3): 5.01 to 50.1 nM
- IC50 (TYK2): 5.01 to 50.1 nM

SMILES: COc1cc(CNS(C)(=O)=O)ccc1-n1nc(CC#N)c2cnc(-c3cnn4cccnc34)cc21 [Example 60, N-(4-(3-(cyanomethyl)-6-(pyrazolo[1,5-a]pyrimidin-3-yl)-1H-pyrazolo[4,3-c]pyridin-1-yl)-3-methoxybenzyl)methanesulfonamide]
- IC50 (JAK 2): ≤ 5.01 nM
- IC50 (JAK 1): ≤ 5.01 nM
- IC50 (JAK 3): ≤ 5.01 nM
- IC50 (TYK2): 5.01 to 50.1 nM

SMILES: COc1cc(NC(=O)c2ccccc2)ccc1-n1nc(NCCN(C)C)c2cnc(-c3cnn4cccnc34)cc21 [Example 75, N-(4-(3-((2-(dimethylamino)ethyl)amino)-6-(pyrazolo[1,5-a]pyrimidin-3-yl)-1H-pyrazolo[4,3-c]pyridin-1-yl)-3-methoxyphenyl)benzamide]
- IC50 (JAK 2): 5.01 to 50.1 nM
- IC50 (JAK 1): 5.01 to 50.1 nM
- IC50 (JAK 3): 5.01 to 50.1 nM
- IC50 (TYK2): > 50.1 nM

SMILES: COc1cc(NS(C)(=O)=O)ccc1-n1nc(C(=O)NCCN(C)C)c2cnc(-c3cnn4cccnc34)cc21 [Example 44, N-(2-(dimethylamino)ethyl)-1-(2-methoxy-4-(methylsulfonamido)phenyl)-6-(pyrazolo[1,5-a]pyrimidin-3-yl)-1H-pyrazolo[4,3-c]pyridine-3-carboxamide]
- IC50 (JAK 2): ≤ 5.01 nM
- IC50 (JAK 1): ≤ 5.01 nM
- IC50 (JAK 3): ≤ 5.01 nM
- IC50 (TYK2): 5.01 to 50.1 nM

SMILES: CCCS(=O)(=O)Nc1ccc(-n2nc(NCCN3CCOCC3)c3cnc(Nc4ncc[nH]c4=O)cc32)c(OC(F)F)c1 [Example 89, N-(3-(difluoromethoxy)-4-(3-((2-morpholinoethyl)amino)-6-((3-oxo-3,4-dihydropyrazin-2-yl)amino)-1H-pyrazolo[4,3-c]pyridin-1-yl)phenyl)propane-1-sulfonamide]
- IC50 (JAK 2): ≤ 5.01 nM
- IC50 (JAK 1): ≤ 5.01 nM
- IC50 (JAK 3): ≤ 5.01 nM
- IC50 (TYK2): 5.01 to 50.1 nM

SMILES: CNS(=O)(=O)c1ccc(-n2nc(NCCCN(C)C)c3cnc(-c4cnn5cccnc45)cc32)c(OC)c1 [Example 52, 4-(3-((3-(dimethylamino)propyl)amino)-6-(pyrazolo[1,5-a]pyrimidin-3-yl)-1H-pyrazolo[4,3-c]pyridin-1-yl)-3-methoxy-N-methylbenzenesulfonamide]
- IC50 (JAK 2): ≤ 5.01 nM
- IC50 (JAK 1): 5.01 to 50.1 nM
- IC50 (JAK 3): ≤ 5.01 nM
- IC50 (TYK2): 5.01 to 50.1 nM

SMILES: COc1cc(NS(=O)(=O)C2COC2)ccc1-n1nc(C)c2cnc(-c3cnn4cccnc34)cc21 [Example 8, N-(3-methoxy-4-(3-methyl-6-(pyrazolo[1,5-a]pyrimidin-3-yl)-1H-pyrazolo[4,3-c]pyridin-1-yl)phenyl)oxetane-3-sulfonamide]
- IC50 (JAK 2): ≤ 5.01 nM
- IC50 (JAK 1): ≤ 5.01 nM
- IC50 (JAK 3): ≤ 5.01 nM
- IC50 (TYK2): 5.01 to 50.1 nM

SMILES: COc1cc(CNS(C)(=O)=O)c(Cl)cc1-n1nc(NCCN2CCOCC2)c2cnc(-c3cnn4cccnc34)cc21 [Example 58, N-(2-chloro-5-methoxy-4-(3-((2-morpholinoethyl)amino)-6-(pyrazolo[1,5-a]pyrimidin-3-yl)-1H-pyrazolo[4,3-c]pyridin-1-yl)benzyl)methanesulfonamide]
- IC50 (JAK 2): 5.01 to 50.1 nM
- IC50 (JAK 1): ≤ 5.01 nM
- IC50 (JAK 3): 5.01 to 50.1 nM
- IC50 (TYK2): 5.01 to 50.1 nM

SMILES: COc1cc(CNS(C)(=O)=O)ccc1-n1nc(NCCN2CCOCC2)c2cnc(-c3cnn4cccnc34)cc21 [Example 53, N-(3-methoxy-4-(3-((2-morpholinoethyl)amino)-6-(pyrazolo[1,5-a]pyrimidin-3-yl)-1H-pyrazolo[4,3-c]pyridin-1-yl)benzyl)methanesulfonamide]
- IC50 (JAK 2): ≤ 5.01 nM
- IC50 (JAK 1): ≤ 5.01 nM
- IC50 (JAK 3): ≤ 5.01 nM
- IC50 (TYK2): 5.01 to 50.1 nM

SMILES: CNc1nn(-c2ccc(S(=O)(=O)NC)cc2OC)c2cc(-c3cnn4cccnc34)ncc12 [Example 51, 3-methoxy-N-methyl-4-(3-(methylamino)-6-(pyrazolo[1,5-a]pyrimidin-3-yl)-1H-pyrazolo[4,3-c]pyridin-1-yl)benzenesulfonamide]
- IC50 (JAK 2): ≤ 5.01 nM
- IC50 (JAK 1): ≤ 5.01 nM
- IC50 (JAK 3): ≤ 5.01 nM
- IC50 (TYK2): 5.01 to 50.1 nM

SMILES: COc1cc(NS(=O)(=O)c2cnn(C)c2)ccc1-n1nc(C)c2cnc(Nc3ncc[nH]c3=O)cc21 [Example 86, N-(3-methoxy-4-(3-methyl-6-((3-oxo-3,4-dihydropyrazin-2-yl)amino)-1H-pyrazolo[4,3-c]pyridin-1-yl)phenyl)-1-methyl-1H-pyrazole-4-sulfonamide]
- IC50 (JAK 2): ≤ 5.01 nM
- IC50 (JAK 1): 5.01 to 50.1 nM
- IC50 (JAK 3): ≤ 5.01 nM
- IC50 (TYK2): 5.01 to 50.1 nM

SMILES: CNc1nn(-c2ccc(NS(=O)(=O)C3CC3)cc2OC)c2cc(-c3cnn4cccnc34)ncc12 [Example 35, N-(3-methoxy-4-(3-(methylamino)-6-(pyrazolo[1,5-a]pyrimidin-3-yl)-1H-pyrazolo[4,3-c]pyridin-1-yl)phenyl)cyclopropanesulfonamide]
- IC50 (JAK 2): ≤ 5.01 nM
- IC50 (JAK 1): ≤ 5.01 nM
- IC50 (JAK 3): 5.01 to 50.1 nM
- IC50 (TYK2): 5.01 to 50.1 nM

SMILES: CCCS(=O)(=O)Nc1ccc(-n2nc(C(=O)NCCCN(C)C)c3cnc(-c4cnn5cccnc45)cc32)c(OC)c1 [Example 46, N-(3-(dimethylamino)propyl)-1-(2-methoxy-4-(propylsulfonamido)phenyl)-6-(pyrazolo[1,5-a]pyrimidin-3-yl)-1H-pyrazolo[4,3-c]pyridine-3-carboxamide]
- IC50 (JAK 2): 5.01 to 50.1 nM
- IC50 (JAK 1): 5.01 to 50.1 nM
- IC50 (JAK 3): 5.01 to 50.1 nM
- IC50 (TYK2): > 50.1 nM

SMILES: COc1cc(NS(=O)(=O)c2cnn(C)c2)ccc1-n1nc(C)c2cnc(-c3cnn4cccnc34)cc21 [Example 10, N-(3-methoxy-4-(3-methyl-6-(pyrazolo[1,5-a]pyrimidin-3-yl)-1H-pyrazolo[4,3-c]pyridin-1-yl)phenyl)-1-methyl-1H-pyrazole-4-sulfonamide]
- IC50 (JAK 2): ≤ 5.01 nM
- IC50 (JAK 1): ≤ 5.01 nM
- IC50 (JAK 3): 5.01 to 50.1 nM
- IC50 (TYK2): 5.01 to 50.1 nM

SMILES: COc1cc(NS(C)(=O)=O)ccc1-n1nc(NC(=O)CN2CCN(C)CC2)c2cnc(-c3cnn4cccnc34)cc21 [Example 81, N-(1-(2-methoxy-4-(methylsulfonamido)phenyl)-6-(pyrazolo[1,5-a]pyrimidin-3-yl)-1H-pyrazolo[4,3-c]pyridin-3-yl)-2-(4-methylpiperazin-1-yl)acetamide]
- IC50 (JAK 2): ≤ 5.01 nM
- IC50 (JAK 1): ≤ 5.01 nM
- IC50 (JAK 3): ≤ 5.01 nM
- IC50 (TYK2): 5.01 to 50.1 nM
